The values that follow come from patent US20230173018A1, “CASPOFUNGIN DERIVATIVES AND ASSAYS FOR EVALUATING ANTIFUNGAL TREATMENT EFFICACY” (priority 2020, published 2023).

In brackets after ≈: the same amount, converted by molar mass.

Assay type in all cases: cell-based
For one experiment, the system named is C. albicans CAF2-1. Briefly: microbe, parasite or virus in culture. To be noted: Candida albicans, SC5314. The method in brief: (§1)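 Susceptibility was measured as the MIC by broth double dilution.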
The test system of another experiment is C. albicans CG72. Briefly: microbe, parasite or virus in culture. Conditions: Candida albicans; strain no. 7, CG72, parental CAM, pKE1:GFP-YPT72; read-out: MIC. The method in brief:
(§2)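 The read-out is the minimal inhibitory concentration, obtained by broth double dilution. The strains tested included some that were made caspofungin-resistant by point mutations near the glucan synthase FKS1/FKS2 hotspots.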

The subject of experiment [1] is C. albicans DPL1016 (DP-A15-10). Kind of experiment: microbe, parasite or virus in culture. To be noted: Candida albicans, SC5314. The method in brief: as §1
Experiment [2] concerns C. albicans T-2074 (DP-122). Briefly: microbe, parasite or virus in culture. Conditions: Candida albicans. The method in brief: as §1
For experiment [3], the system named is C. albicans T-2076 (DP-194). Briefly: microbe, parasite or virus in culture. Conditions: Candida albicans. Summed up: as §1
Experiment [4] has as its system C. albicans T-2077 (DP-205). Briefly: microbe, parasite or virus in culture. To be noted: Candida albicans. The method in brief: as §2
The test system of a further experiment is C. glabrata CST78. Briefly: microbe, parasite or virus in culture. Conditions: Nakaseomyces glabratus; strain no. 26, C. glabrata CST78; read-out: MIC. The method in brief:
as §2

Another experiment concerns C. glabrata DPL1086. Kind of experiment: microbe, parasite or virus in culture. Conditions: Nakaseomyces glabratus, ATCC90030. The method in brief:
as §1

The next experiment has as its system C. glabrata TGL00056. Kind of experiment: microbe, parasite or virus in culture. To be noted: Nakaseomyces glabratus, TGL00056. The method in brief: as §1
The subject of another experiment is C. glabrata TGL00091. Briefly: microbe, parasite or virus in culture. Conditions: Nakaseomyces glabratus, TGL00091. Summed up:
as §1

The next experiment has as its system C. glabrata TGL00107. Briefly: microbe, parasite or virus in culture. Conditions: Nakaseomyces glabratus, TGL00107. The method in brief:
as §1

The subject of another experiment is C. glabrata TGL00253. Briefly: microbe, parasite or virus in culture. Conditions: Nakaseomyces glabratus, TGL00253. Summed up: as §1
The next experiment deals with C. glabrata TGL00256. Briefly: microbe, parasite or virus in culture. To be noted: Nakaseomyces glabratus, TGL00256. Summed up:
as §1

For a further experiment, the system named is C. glabrata TGL00265. Briefly: microbe, parasite or virus in culture. To be noted: Nakaseomyces glabratus, TGL00265. Summed up:
as §1

In the next experiment the test system is C. glabrata TGL00291. Kind of experiment: microbe, parasite or virus in culture. Conditions: Nakaseomyces glabratus, TGL00291. Summed up:
as §2

The next experiment deals with C. glabrata TGL00294. Kind of experiment: microbe, parasite or virus in culture. To be noted: Nakaseomyces glabratus, TGL00294. Summed up:
as §1

In experiment [5] the test system is C. albicans SC5314 and SN152. Briefly: Competition for cellular uptake with probe 1, flow cytometry. To be noted: added simultaneously with probe 1; caspofungin 1 μM, 10 μM; fluconazole 10 μM. As to the method:
To determine if caspofungin competes for cellular uptake with fluorescent probe 1, both the drug and the probe were added simultaneously to cultures of strains SC5314 and SN152. The uptake of probe 1 was measured by flow cytometry every 15 minutes for 1 hour (FIG. 6B). […] No effect on the uptake of probe 1 was detected in cells co-treated with the antifungal azole drug fluconazole, which inhibits the biosynthesis of fungal membrane sterol, ergosterol.

The subject of a further experiment is C. albicans SC5314 cells. Briefly: Cell viability by propidium iodide (PI) staining, PBS vs YPAD. Conditions: 1 μM. As to the method: To determine whether the caspofungin relocalization and apparent cell damage and death is a feature of caspofungin (and not only of the fluorescent caspofungin probe 1), cell viability was followed using propidium iodide (PI), a dye normally excluded from metabolically active cells.
Cell viability was compared in the presence and absence of 1 μM unlabeled caspofungin, using cells incubated either in PBS or in YPAD. […] Thus, cells exposed to caspofungin in nutrient-rich conditions become permeable to PI, an indicator of cell death. This observation explains the non-specific distribution of probe 1 in the cytoplasm after prolonged incubation (FIG. 7A). It is also consistent with the idea that plasma membrane permeabilization and cell death are likely accompanied by the loss of structural integrity of organelles, including the vacuoles detected here.

As for `CC[C@H](C)C[C@H](C)CCCCCCCCC(=O)N[C@H]1C[C@@H](O)[C@@H](NCCN)NC(=O)[C@@H]2[C@@H](O)CCN2C(=O)[C@H]([C@H](O)CCN)NC(=O)[C@H]([C@H](O)[C@@H](O)c2ccc(O)cc2)NC(=O)[C@@H]2C[C@@H](O)CN2C(=O)[C@H]([C@@H](C)O)NC1=O` [Caspofungin], the MIC in the experiment on C. albicans CAF2-1 is 0.063 µg/mL (≈ 0.0576 µM); in the experiment with C. albicans CG72, 0.031 µg/mL (≈ 0.0284 µM); in experiment [1], 16 µg/mL (≈ 14.6 µM); in experiment [2], 1 µg/mL (≈ 0.915 µM); in [3], 2 µg/mL (≈ 1.83 µM); in [4], over 64 µg/mL. The MIC in the experiment on C. glabrata CST78 was 0.125 µg/mL (≈ 0.114 µM); in the experiment with C. glabrata DPL1086, 2 µg/mL (≈ 1.83 µM); in the experiment with C. glabrata TGL00056, over 64 µg/mL; in the experiment with C. glabrata TGL00091, over 64 µg/mL; with C. glabrata TGL00107, over 64 µg/mL; against C. glabrata TGL00253, over 64 µg/mL. Further, the MIC was 1 µg/mL (≈ 0.915 µM) against C. glabrata TGL00256, over 64 µg/mL with C. glabrata TGL00265, over 64 µg/mL in the experiment on C. glabrata TGL00291 and 16 µg/mL (≈ 14.6 µM) in the experiment with C. glabrata TGL00294. In experiment [5], the “effect on the uptake of probe 1” value is “reduced the uptake of probe 1 in a dose-dependent manner”. Also, the “cell viability, PI staining” value with C. albicans SC5314 cells (PBS) is given as “cells excluded the PI stain”; in the experiment with C. albicans SC5314 cells (YPAD, after 15 min) it was “viable”; in the experiment with C. albicans SC5314 cells (YPAD, after 2 h) it was “stained brightly with PI”.
